The values below come from PubChem BioAssay (NCI).

Structures are written as SMILES.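 Each compound was tested at five concentrations against cells in 96-well plates for 48 hours. GI50 = concentration required for 50% inhibition of growth. At the TGI there is no net growth.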 Where a SMILES comes first, the peptide text is derived from it. [ ]: non-standard residue; d: D form. pGlu = O=C1CC[CH](C(=O)O)N1

Holding throughout (experiment): NCI anticancer screen, dose series, 48 h
The subject of assay [1] is RPMI-8226 leukemia.
Assay [2] relates to HS 578T breast.
Assay [3] relates to M14 melanoma.
The subject of assay [4] is MALME-3M melanoma.
Assay [5] relates to TK-10 renal.
The test system of assay [6] is A498 renal.
The subject of assay [7] is SW-620 colon.
For assay [8], the system named is PC-3 prostate.
The subject of assay [9] is SNB-75 CNS.
Assay [10] deals with UACC-62 melanoma.

Consider `CCNC(=O)C1CCCN1C(=O)C(CCCN=C(N)N)NC(=O)C(CC(C)C)NC(=O)C(CC(C)C)NC(=O)C(Cc1ccc(O)cc1)NC(=O)C(CO)NC(=O)C(Cc1c[nH]c2ccccc12)NC(=O)C(Cc1cnc[nH]1)NC(=O)C1CCC(=O)N1` (stereo unspecified) ([pGlu]HWSYLLRP-NHEt; configuration not given here), for which the GI50 in [1] was 74.3 µM; in assay [2], more than 100 µM; in [3], more than 100 µM; in assay [4], more than 100 µM; in assay [5], more than 100 µM; in assay [6], more than 100 µM. The GI50 in [7], in [8] and in [9] was more than 100 µM each time. In addition, the TGI in assay [1], in assay [2], in assay [3], in assay [4], in assay [5] and in assay [6] was more than 100 µM throughout. For the same molecule, the TGI in assay [7], in assay [8] and in assay [9] was more than 100 µM in each case.

Regarding `COc1ccc(/C=C/C(=O)c2cc(OC)c(OC)c(OC)c2)cc1OCc1cn(Cc2ccc(F)cc2)nn1`, the GI50 in [10] is 3.16 µM; in [1] it was 1.7 µM; in assay [2] it was 3.38 µM; in assay [3], 4.07 µM; in assay [4] it was 72.5 µM; in assay [5], 3 µM. For the same molecule, the GI50 in assay [6] was 12.2 µM; in assay [7] it was 3.16 µM; in [8], 2.66 µM. For the same molecule, the TGI in [10] was 14.3 µM; in [1], 6.3 µM; in [2], more than 100 µM; in assay [3] it was more than 100 µM; in assay [4], more than 100 µM; in assay [5], 8.06 µM. Moreover, the results for the TGI in assay [6], in [7] and in [8] were 56.2 µM, more than 100 µM and more than 100 µM, respectively.

For `CCOC(=O)c1c(C)nc2c(c1N)CC(=O)N2Cc1ccc(OC)cc1`, the GI50 is 34.1 µM in assay [10]; more than 100 µM in assay [1]; 4.78 µM in [2]; more than 100 µM in assay [3]; more than 100 µM in assay [4]; 5.12 µM in assay [5]. The GI50 in [7] was more than 100 µM; in [8], more than 100 µM; in [9] it was 3.4 µM. The TGI in [10], in [1], in assay [2], in [3], in assay [4] and in assay [5] was more than 100 µM in each case. For the same molecule, the values for the TGI in [7], in [8] and in assay [9] were more than 100 µM, more than 100 µM and 25.8 µM, respectively.

With `NS(=O)(=O)c1ccc(-n2nc(-c3ccc(Cl)cc3)cc2-c2cc(O)ccc2O)cc1`, the GI50 in assay [10] was 7.3 µM; in [1], 3.15 µM; in assay [2], 34.2 µM; in [3] it was 5.82 µM; in assay [5] it was 10.9 µM; in assay [7], 23.4 µM. For the same molecule, the GI50 in assay [8] is 8.37 µM. Moreover, the TGI was determined as 19.2 µM in [10]; 11.7 µM in [1]; 78.9 µM in [2]; 17.4 µM in assay [3]; 26.1 µM in assay [5]; 89.4 µM in assay [7]. Moreover, the TGI in assay [8] was determined as 23.8 µM.

With `COc1ccc(-c2cc3c(c4cc(OC)ccc24)C(=O)OC3=O)cc1`, the TGI in [10], in assay [1], in [2], in assay [3], in assay [4] and in assay [5] was more than 100 µM throughout. The TGI in assay [7], in [8] and in assay [9] was more than 100 µM in each case.

Turning to `COc1ccc(C(=S)N2CCN(c3cccc(C)c3)CC2)cc1OC`, the GI50 in [10] was 4.1 µM; in assay [2], 3.16 µM; in assay [3] it was 3.18 µM; in assay [4], 3.34 µM; in [5], 7.99 µM; in assay [6], 4.85 µM. The GI50 in assay [7] is 3.04 µM; in [9] it was 2.16 µM. Also, the TGI in assay [10] was more than 100 µM; in assay [2], 31.7 µM; in [3] it was more than 100 µM; in assay [4], 84.4 µM; in [5], more than 100 µM; in assay [6], more than 100 µM. The TGI in assay [7] is more than 100 µM; in assay [9], 11.9 µM.

As to `CNC(=O)Nc1nc2ccc([N+](=O)[O-])cc2[nH]1`, the TGI in assay [1], in assay [2], in assay [3], in assay [4], in assay [5] and in assay [6] was more than 100 µM in each case. The TGI in [7] and in assay [8] was more than 100 µM in each case.

For the molecule `CC1(C)C2CCC13C(=O)C1OC3(C2)C2C(=O)c3cc4ccccc4cc3C(=O)C12` (stereo unspecified), the GI50 in assay [2] is 53.7 µM; in assay [3], 10.7 µM; in assay [4], 7.3 µM; in [5] it was 12.9 µM; in [8] it was 3.85 µM; in [9], 54.5 µM. The TGI in [2] was more than 100 µM; in [3], more than 100 µM; in [4], 43.8 µM; in assay [5], 44.5 µM; in [8], 27.8 µM; in assay [9] it was more than 100 µM.

On to `C=CCN=c1sc2c(n1NC(=O)c1cc3ccc1CCc1ccc(cc1)CC3)C(=O)c1ccccc1C2=O`, for which the GI50 in [10] is 1.63 µM; in assay [2] it was 2.04 µM; in [3] it was 1.63 µM; in assay [4], 0.383 µM; in [5], 4.48 µM; in assay [6] it was 10.5 µM. For the same molecule, the GI50 in assay [7] is 1.63 µM; in [8], 1.49 µM; in assay [9] it was 0.843 µM. Besides, the TGI in assay [10] turned out to be 3.91 µM; in assay [2], 6.93 µM; in assay [3], 3.3 µM; in assay [4] it was 1.58 µM; in assay [5], 8.14 µM; in [6] it was 47 µM. Also, the TGI in assay [7] amounted to 3.45 µM; in assay [8] it was 8.81 µM; in assay [9] it was 2.77 µM.
